Experiment: Chemical stability of the compound assessed as decomposition of the compound
Format: physicochemical

Stability: Unstable
Compound: N#Cc1ccccc1N[11C](=O)Nc1ccc(S(N)(=O)=O)cc1

From ChEMBL document CHEMBL1921683, “Radiosynthesis of three [11C]ureido-substituted benzenesulfonamides as PET probes for carbonic anhydrase IX in tumors” (Bioorg Med Chem Lett, 2011)
